{"source": "patent US20080021002A1", "about": "“VITAMIN D COMPOUNDS USED TO STABILIZE KIDNEY TRANSPLANTS” (priority 2000, published 2008)", "assay_type_in_all_cases": "in vivo, rat", "key": {"Smad 2 mRNA": {"test_system": "Smad 2 mRNA", "experiment": "Semi-quantitative RT-PCR of renal grafts, Smad 2 mRNA", "details": "vs controls", "procedure": "(§1) Semi-quantitative Reverse transcription polymerace chain reaction (RT-PCR): Following graft harvest a […] containing both cortex and medulla was snap frozen in liquid nitrogen. Semi-quantitative RT-PCR was performed as described. Little et al. Transplant Int. 12:393-401, 1999. Briefly, samples were homogenized then total RNA extracted with RNAzol B (Tel Test, Inc., Friendswood, Tex.) and reversed transcribed to cDNA according to manufacturer=s instructions (Superscript, Gibco BRL). PCR was performed over the linear range of amplification for both the gene of interest, e.g. TGFβ-1, and the ribosomal protein S26 as a control housekeeping gene. PCR conditions were chosen such that both products were amplified with similar efficiency. The following cycle parameters were employed: denaturing, 94° C. for 60 seconds; annealing, 61° C. for 60 seconds; and extension, 72° C. for 60 seconds. The amount of product was quantified using a phosphoimager (Storm 80) following gel electrophoresis and Vista green detection."}, "Smad 3 mRNA": {"test_system": "Smad 3 mRNA", "experiment": "Semi-quantitative RT-PCR of renal grafts, Smad 3 mRNA", "details": "vs controls", "procedure": "as §1"}, "Smad 6 mRNA": {"test_system": "Smad 6 mRNA", "experiment": "Semi-quantitative RT-PCR of renal grafts, Smad 6 mRNA", "from_the_text": "FIG. 3 is a bar graph disclosing that 1,25-(OH)2D3 treated increases Smad 6 mRNA expression. Semi-quantitative RT-PCR was used to determine Smad mRNA express. PCR products were quantified on a phosphoimager and the level of Smad expression compared to that of a ribosomal housekeeping gene, S26. Results are expressed as the ratio to S26.\nas §1"}, "Vitamin D receptor mRNA": {"test_system": "Vitamin D receptor mRNA", "experiment": "Semi-quantitative RT-PCR of renal grafts, vitamin D receptor mRNA", "procedure": "as §1, with “12:393-401, 1999.” left out"}, "Smad 7 protein": {"test_system": "Smad 7 protein", "experiment": "Western blot of renal graft lysates, Smad 7 protein", "details": "allogeneic grafts vs untreated allogeneic grafts (FIG. 4B)", "from_the_text": "Renal lysates were subjected to SDS-PAGE and transferred to nitrocellulose membranes. The membranes were probed with specific anti-Smad antibodies and appropriated HRP-conjugated secondary antibodies. Signal was detected with chemilumensnce. Following exposure, x-ray films were scanned and the amount of expression compared to that of tubulin as an internal control using Scion Image software. FIG. 4 (A) describes R-Smad expression. FIG. 4 (B) described I-Smad expression.\nWestern Blot Analysis: A portion of the snap frozen graft containing both cortex and medulla was ground with a mortar and pestle. For each 100 mg of tissue, the sample was resuspened in 400 ul of lysis buffer (10 mM Tris base, 150 mM NaCl, pH 8.0) containing protease inhibitors (P2714 1:1000. Sigma Chemical Co., St. Louis, Mo.) and homogenized (PowerGen 125, 1 minute). Triton X100 was then added to 1% and the sample place on ice, for 30 minutes. The solubilized sample was then spun at 4° C. for 15 minutes at 15,000×G. The supernatant was collected and stored at −80° C. Sample protein concentrations were determined using the Micro BCA assay (Pierce Chemical Co., Rockford, Ill.) according to manufacturer=s instructions, except that the assay was performed in half area plates combining 35 μl sample with 70 µl of reagent. […]"}, "TGFβ-1 mRNA": {"test_system": "TGFβ-1 mRNA", "experiment": "Semi-quantitative RT-PCR of renal grafts, TGFβ-1 mRNA", "details": "treated recipients vs untreated allogeneic control grafts", "procedure": "as §1"}, "bioactive TGFβ-1": {"test_system": "bioactive TGFβ-1", "experiment": "Immunohistochemistry of renal grafts for bioactive TGFβ-1", "procedure": "FIGS. 6 (B) and (C) show immunohistochemistry for bioactive TGFβ-1 in two 1,25-(OH)2D3 treated grafts (1000 ng/rat/day). […] Magnification 200×.\nImmunhistochemistry: Formalin fixed, paraffin embedded rat kidneys were sectioned to 4 microns. Sections were rewarmed on day of staining at 60° for 10 minutes, then deparaffinized in xylene for 30 minutes followed by rehydration. Sections were washed twice in distilled water and antigen retrieval performed. Briefly, section were soaked in 100 mM citrate buffer, pH=6.0 for 10 minutes at 90° C. and then heated to 115° C. or 20 minutes Sections were allowed to cool and then washed in PBS and blocked for 10 minutes with BIOCARE SUPER SNIPER9 (BS996L) followed by diluted primary TGFβ-1 antibody (1:150 (Promega Corp., Madison, Wis.; G1221) at 4° C. overnight. Slides were washed (3×5 minutes, PBS) and secondary antibody applied (1 hour at RT, MACHII BIOCARE goat anti-rabbit with polymer spacer; RHRP52OH, Walnut Creek, Calif.).\nSlides were developed with Pierce=s Stable Peroxide buffer (cat #1855910) and Pierce=s Stable Metal enhanced DAB solution (cat #1856090)."}}}
{"molecule": "C=C1/C(=C\\C=C2/CCC[C@]3(C)[C@@H]([C@H](C)CCCC(C)(C)O)CC[C@@H]23)C[C@@H](O)C[C@@H]1O", "note": "[calcitriol, 1,25-dihydroxyvitamin D3]", "values": [{"measurement": "Smad 2 mRNA levels", "setting": "Smad 2 mRNA", "result": "no significant change"}, {"measurement": "Smad 3 mRNA levels", "setting": "Smad 3 mRNA", "result": "no significant change"}, {"measurement": "Smad 6 mRNA expression", "setting": "Smad 6 mRNA; allogeneic grafts, vs untreated allogeneic grafts (1,25-(OH)2D3 p=0.02)", "result": "significantly increased"}, {"measurement": "Smad 6 mRNA expression", "setting": "Smad 6 mRNA; syngeneic grafts, vs untreated allogeneic grafts, p=0.001", "result": "significantly increased"}, {"measurement": "Vitamin D receptor mRNA expression", "setting": "Vitamin D receptor mRNA; all treated groups vs untreated syngeneic control (data not shown)", "result": "elevated"}, {"measurement": "Vitamin D receptor mRNA expression", "setting": "Vitamin D receptor mRNA; vs untreated allogeneic control (data not shown)", "result": "not significantly different"}, {"measurement": "Increase in Smad 7 protein levels", "setting": "Smad 7 protein", "result": "4,3 fold"}, {"measurement": "TGFβ-1 mRNA levels", "setting": "TGFβ-1 mRNA", "result": "no significant difference"}, {"measurement": "Glomerular staining for bioactive TGFβ-1", "setting": "bioactive TGFβ-1; 1000 ng/rat/day (FIG. 6 legend)", "result": "significantly decreased"}, {"measurement": "Bioactive TGFβ-1 staining in tubular areas", "setting": "bioactive TGFβ-1; allogeneic grafts (FIG. 6)", "result": "extensive staining"}, {"measurement": "Bioactive TGFβ-1 expression in glomeruli", "setting": "bioactive TGFβ-1; treated grafts in contrast to untreated control grafts (FIG. 6)", "result": "little bioactive TFGβ-1 expression"}]}
